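Following 48 hours of exposure in 96-well plates, responses at five concentrations were used to interpolate endpoints linearly. GI50 = concentration required for 50% inhibition of growth. TGI marks complete inhibition of growth.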
Assays:
Assay in all cases: growth of human tumour cells (NCI), 48 h
[1] = tested on: HS 578T breast
[2] = tested on: TK-10 renal
[3] = tested on: RPMI-8226 leukemia
[4] = tested on: SF-539 CNS
[5] = tested on: EKVX NSCLC
[6] = tested on: NCI-H460 lung
[7] = tested on: MDA-MB-435
[8] = tested on: OVCAR-4 ovarian
[9] = tested on: SF-268 CNS
[10] = tested on: SK-MEL-5 melanoma
[11] = tested on: SW-620 colon
[12] = tested on: HT29 colon
[13] = tested on: HOP-92 NSCLC
[14] = tested on: CCRF-CEM leukemia
[15] = tested on: OVCAR-5 ovarian
[16] = tested on: HCT-15 colon
[17] = tested on: DU-145 prostate
[18] = tested on: OVCAR-8 ovarian
[19] = tested on: LOX IMVI melanoma
[20] = tested on: PC-3 prostate
[21] = tested on: HCC-2998 colon
[22] = tested on: U251 CNS
[23] = tested on: HL-60(TB) leukemia
[24] = tested on: KM12 colon
[25] = tested on: M14 melanoma
[26] = tested on: MALME-3M melanoma
[27] = tested on: SN12C renal
[28] = tested on: SK-MEL-2 melanoma
[29] = tested on: SF-295 CNS

Cc1c2c(nn1C(=O)c1nn(-c3ccc(Cl)cc3)cc1O)-c1ccccc1CC2
GI50 [1]: 20.1 nM | TGI [1]: > 100000 nM | GI50 [2]: 42.9 nM | TGI [2]: > 100000 nM | GI50 [3]: 43.2 nM | GI50 [4]: 41 nM | TGI [4]: 28100 nM | GI50 [5]: 70.7 nM | TGI [5]: > 100000 nM | GI50 [6]: 23.7 nM | TGI [6]: 61.3 nM | GI50 [7]: 41.2 nM | TGI [7]: > 100000 nM | GI50 [8]: 246 nM | TGI [8]: > 100000 nM | GI50 [9]: 46.9 nM | TGI [9]: > 100000 nM | GI50 [10]: 313 nM | GI50 [11]: 289 nM | TGI [11]: > 100000 nM | GI50 [12]: 226 nM | TGI [12]: > 50600 nM | GI50 [13]: 52.1 nM | TGI [13]: > 100000 nM | GI50 [14]: 47.7 nM | TGI [14]: > 49100 nM | GI50 [15]: 72.3 nM | TGI [15]: > 100000 nM | GI50 [16]: 49.6 nM | TGI [16]: > 100000 nM | GI50 [17]: 49.7 nM | TGI [17]: > 100000 nM | GI50 [18]: 52.3 nM | TGI [18]: > 100000 nM | GI50 [19]: 72.2 nM | TGI [19]: > 100000 nM | GI50 [20]: 37.3 nM | TGI [20]: > 100000 nM | GI50 [21]: 377 nM | TGI [21]: > 100000 nM | GI50 [22]: 29.2 nM | TGI [22]: > 100000 nM | GI50 [23]: 50.7 nM | TGI [23]: 1120 nM | GI50 [24]: 63.2 nM | TGI [24]: > 100000 nM | GI50 [25]: 84.2 nM | TGI [25]: > 45500 nM | GI50 [26]: 328 nM | TGI [26]: > 74000 nM | GI50 [27]: 40.3 nM | TGI [27]: > 100000 nM | GI50 [28]: 55400 nM | TGI [28]: > 100000 nM | GI50 [29]: 11.9 nM

From PubChem BioAssay (NCI)
